Source: patent publication US20050070006A1 (priority 2001, published 2005)
Converted amounts (≈) assume the structure as drawn. Where two headings read alike, the source gives them in different places.

Experiments:
[1] = tested on: strain 4S (frameshift mutation); details: Bromocresol Red colour change
[2] = tested on: strain 6S (frameshift mutation); experiment: Long-term mutation test (selection phase 16 hours), luminometric β-galactosidase reporter; details: selection 16 hours
[3] = antibiotic activity; Olivia et al. 1992; cited from earlier work
[4] = tested on: strain 4S (frameshift mutation); experiment: Long-term mutation test (selection phase 16 hours), luminometric β-galactosidase reporter; details: selection 16 hours

## COc1ccc2nc3cc(Cl)ccc3c(NCCCNCCCl)c2c1.Cl.Cl [ICR-191, 2-Methoxy-6-chloro-9-(3-(2-chloro-ethyl)aminopropylamino)acridine, dihydrochloride]
[1]; 0.03 μg/ml
  % of positive wells: 0%
  Mutation induction (factor): 0 factor
[1]; 0.06 μg/ml
  % of positive wells: 6.3%
  Mutation induction (factor): 2 factor
[1]; 0.12 μg/ml
  % of positive wells: 12.5%
  Mutation induction (factor): 4 factor
[1]; 0.25 μg/ml
  % of positive wells: 25%
  Mutation induction (factor): 8.1 factor
[1]; 0.5 μg/ml
  % of positive wells: 37.5%
  Mutation induction (factor): 12.1 factor
[1]; 1 μg/ml
  % of positive wells: 75%
  Mutation induction (factor): 24.2 factor
[2]; 0.016 μg/ml
  Mutation induction (factor): 28 factor
  Relative luminescence units (rlu): 151340 rlu
[2]; 0.031 μg/ml
  Mutation induction (factor): 57 factor
  Relative luminescence units (rlu): 307828 rlu
[2]; 0.0625 μg/ml
  Mutation induction (factor): 86 factor
  Relative luminescence units (rlu): 466003 rlu
[2]; 0.125 μg/ml
  Mutation induction (factor): 127 factor
  Relative luminescence units (rlu): 685471 rlu
[2]; 0.25 μg/ml
  Mutation induction (factor): 162 factor
  Relative luminescence units (rlu): 880208 rlu
[2]; 0.5 μg/ml
  Mutation induction (factor): 235 factor
  Relative luminescence units (rlu): 1274327 rlu
[2]; 1 μg/ml
  Mutation induction (factor): 264 factor
  Relative luminescence units (rlu): 1432620 rlu

## CN(C)[C@@H]1C(=O)C(C(N)=O)=C(O)[C@@]2(O)C(=O)C3=C(O)c4c(O)cccc4[C@@](C)(O)[C@H]3C[C@@H]12 [tetracyclin]
[3]
  MIC (minimum inhibition concentration) value: 0.5 µg/mL (≈ 1.13 µM)

## Nitrofluorene
[4]; 0.031 μg/ml
  Mutation induction (factor): 39 factor
  Relative luminescence units (rlu): 210703 rlu
[4]; 0.0625 μg/ml
  Mutation induction (factor): 90 factor
  Relative luminescence units (rlu): 480532 rlu
[4]; 0.125 μg/ml
  Mutation induction (factor): 169 factor
  Relative luminescence units (rlu): 900022 rlu
[4]; 0.25 μg/ml
  Mutation induction (factor): 321 factor
  Relative luminescence units (rlu): 1713083 rlu
[4]; 0.5 μg/ml
  Mutation induction (factor): 682 factor
  Relative luminescence units (rlu): 3643737 rlu
[4]; 1 μg/ml
  Mutation induction (factor): 630 factor
  Relative luminescence units (rlu): 3360982 rlu

## Nitropyrene
[4]; 0.031 μg/ml
  Mutation induction (factor): 0.8 factor
  Relative luminescence units (rlu): 4125 rlu
[4]; 0.0625 μg/ml
  Mutation induction (factor): 19.8 factor
  Relative luminescence units (rlu): 105949 rlu
[4]; 0.125 μg/ml
  Mutation induction (factor): 41 factor
  Relative luminescence units (rlu): 219636 rlu
[4]; 0.25 μg/ml
  Mutation induction (factor): 65 factor
  Relative luminescence units (rlu): 348410 rlu
[4]; 0.5 μg/ml
  Mutation induction (factor): 177 factor
  Relative luminescence units (rlu): 950853 rlu
[4]; 1 μg/ml
  Mutation induction (factor): 103 factor
  Relative luminescence units (rlu): 552390 rlu
